The target of data set [1] is Acetylcholinesterase (Electrophorus electricus) (UniProt O42275). Description: (§1) Inhibition of electric eel AChE by Ellman's method. (Ellman's reagent forms a yellow product with free thiols.)
The target in data set [2] is Acetylcholinesterase (Electrophorus electricus, UniProt O42275). The description is as §1.
Data set [3] is described as follows: Lipophilicity, log D of the compound. The data set is classed as physicochemical. Particulars: octanol/water.

Chain of Acetylcholinesterase (O42275 whole entry): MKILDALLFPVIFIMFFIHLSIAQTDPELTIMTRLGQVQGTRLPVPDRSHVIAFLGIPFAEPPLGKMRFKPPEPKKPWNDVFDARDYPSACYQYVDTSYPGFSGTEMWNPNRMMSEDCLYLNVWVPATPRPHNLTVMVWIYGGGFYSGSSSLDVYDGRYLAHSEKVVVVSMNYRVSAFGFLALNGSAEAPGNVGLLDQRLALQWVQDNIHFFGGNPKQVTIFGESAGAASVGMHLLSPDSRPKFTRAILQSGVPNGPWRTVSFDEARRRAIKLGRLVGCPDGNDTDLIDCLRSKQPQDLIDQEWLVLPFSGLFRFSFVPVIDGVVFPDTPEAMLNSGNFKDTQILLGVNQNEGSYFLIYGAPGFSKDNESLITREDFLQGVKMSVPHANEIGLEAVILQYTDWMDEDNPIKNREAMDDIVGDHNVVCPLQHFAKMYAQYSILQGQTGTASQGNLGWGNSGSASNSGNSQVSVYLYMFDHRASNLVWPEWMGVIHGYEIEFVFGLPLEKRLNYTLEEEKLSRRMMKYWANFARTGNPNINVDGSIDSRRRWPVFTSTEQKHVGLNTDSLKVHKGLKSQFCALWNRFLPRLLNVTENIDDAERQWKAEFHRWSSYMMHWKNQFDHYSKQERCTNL
Chain of Acetylcholinesterase (Electrophorus electricus) (O42275 24-633 limits assumed): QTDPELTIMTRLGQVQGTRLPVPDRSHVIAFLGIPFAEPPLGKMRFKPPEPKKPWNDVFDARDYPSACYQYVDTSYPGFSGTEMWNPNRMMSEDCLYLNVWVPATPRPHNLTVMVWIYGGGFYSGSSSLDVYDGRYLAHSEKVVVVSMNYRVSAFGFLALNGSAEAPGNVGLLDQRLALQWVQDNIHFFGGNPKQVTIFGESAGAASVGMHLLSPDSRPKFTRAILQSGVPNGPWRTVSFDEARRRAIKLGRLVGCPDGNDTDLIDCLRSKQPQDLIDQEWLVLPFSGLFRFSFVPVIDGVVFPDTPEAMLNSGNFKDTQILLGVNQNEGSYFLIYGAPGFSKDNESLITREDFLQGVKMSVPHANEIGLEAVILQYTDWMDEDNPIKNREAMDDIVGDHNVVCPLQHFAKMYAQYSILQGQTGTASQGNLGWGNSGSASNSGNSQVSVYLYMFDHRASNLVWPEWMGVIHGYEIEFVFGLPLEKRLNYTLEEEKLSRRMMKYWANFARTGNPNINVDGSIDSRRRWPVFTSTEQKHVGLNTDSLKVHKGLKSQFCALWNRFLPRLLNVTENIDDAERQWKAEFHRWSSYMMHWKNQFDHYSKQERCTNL

As usually defined, the IC50 is the point on the concentration scale where inhibition reaches its midpoint. A higher IC50 goes with weaker potency in that assay. Usually logD stands for the decadic logarithm of the distribution of all forms, ionised or not, between an organic phase and buffer at a given pH. Consider `CCOc1cc(C(=O)NNC(=S)Nc2ccc(S(N)(=O)=O)cc2)cc(OCC)c1OCC`, for which the inhibition entry in data set [1] was “Dose-dependent effect”. Half-maximal inhibition in data set [2] (IC50) was put at 4.8 µM. Further, the pH-dependent lipophilicity (logD) in data set [3] was found to be 2.65.

In data set [3], `COc1cc(/C=C/C(=O)NCCCCNc2c3c(nc4ccccc24)CCCC3)ccc1O` had a log distribution coefficient (logD) of 5.33.

`COc1cc(/C=N/NC(=O)CSc2nnc(-c3ccc(OC)c(OC)c3)n2-c2ccccc2)ccc1O` yielded an IC50 in data set [2] of more than 100 µM. In data set [3], this compound gave a logD of 4.4.

In the case of `Cc1cccc(OCC(=O)Nc2cccc(Oc3ccc4c(c3)C(=O)NC4=O)c2)c1C`, the IC50 in data set [2] turned out to be 14.9 µM. Moreover, the log distribution coefficient (logD) in data set [3] was found to be 3.81.

Turning to `COc1ccc(NC(=O)c2ccc(NS(=O)(=O)c3cc4c5c(cccc5c3)C(=O)N4)cc2)cc1`, the half-inhibitory concentration (IC50) in data set [2] was more than 100 µM. In addition, in data set [3], the logD was found to be 2.95.

Turning to `C=CCn1c2ccccc2c2nnc(SCC(=O)Nc3ccc(S(N)(=O)=O)cc3)nc21`, the inhibition result in data set [1] is “Dose-dependent effect”. In data set [2], this compound yielded an IC50 of 6.5 µM. The logD in data set [3] is 1.34.

As to `CC(=O)Nc1ccc(-c2nnc(SCC(=O)Nc3ccc(Br)cc3Cl)n2C)cc1`, the half-maximal inhibitory concentration (IC50) in data set [2] came out at 10.5 µM. This compound had a log distribution coefficient (logD) in data set [3] of 3.61.

Regarding `CCOc1cc(/C=N/NC(=O)c2cc(-c3cccc(OC)c3)n[nH]2)ccc1O`, the IC50 in data set [2] came to 7.8 µM. Besides, the pH-dependent lipophilicity (logD) in data set [3] was found to be 3.44.

`O=C1Nc2cc(S(=O)(=O)Nc3ccc(Oc4ccccc4)cc3)cc3cccc1c23` gave an IC50 in data set [2] of 9.9 µM. The compound also yielded a log distribution coefficient (logD) in data set [3] of 3.74.

In data set [3], `COc1cc(/C=C/C(=O)NCCCCCNc2c3c(nc4ccccc24)CCCC3)ccc1O` registered a logD of 5.78.

`CCNS(=O)(=O)c1ccc(NC(=O)c2ccc(Cn3nc(C)cc3C)o2)cc1`: the inhibition entry in data set [1] is “Dose-dependent effect”. In data set [2], this compound registered a half-inhibitory concentration (IC50) of 1.5 µM. This compound also showed a logD in data set [3] of 2.01.

Take `CC1CCc2c(sc3nc(SCC(=O)Nc4ccc(S(N)(=O)=O)cc4)n(N)c(=O)c23)C1` (configuration not stated): the inhibition result in data set [1] was “Dose-dependent effect”. Moreover, the IC50 in data set [2] is 5.9 µM. The same compound yielded a pH-dependent lipophilicity (logD) in data set [3] of 2.3.

`O=C1Nc2ccccc2/C1=N/NC(=O)c1ccc(Nc2nc(-c3ccccc3)cs2)cc1` showed an IC50 in data set [2] of 9.5 µM. The logD in data set [3] came to 4.26.

The compound `COc1cc(/C=N/NC(=O)c2ccc(COc3c(F)c(F)c(F)c(F)c3F)cc2)ccc1O` gave an IC50 in data set [2] of 6.7 µM. Besides, the logD in data set [3] is 5.02.

Turning to `C=CCn1c(SCCCC(=O)Nc2ccc(S(N)(=O)=O)cc2)nc2sc3c(c2c1=O)CCCC3`, the inhibition result in data set [1] is “Dose-dependent effect”. The compound further showed a 50% inhibitory concentration (IC50) in data set [2] of 2.5 µM. The pH-dependent lipophilicity (logD) in data set [3] worked out at 3.93.

Consider `COc1cc(/C=N/NC(=O)c2ccc(COc3cccc(Cl)c3)o2)cc(Br)c1O`, for which the midpoint of inhibition in data set [2], the IC50, lay at 9.8 µM. The logD in data set [3] turned out to be 4.86.

Consider `C=C(C)COc1cc(C)cc2oc(=O)c(CC(=O)NCc3ccc(S(N)(=O)=O)cc3)c(C)c12`, for which, in data set [2], the 50% inhibitory concentration (IC50) was 12.3 µM. The compound further came in with a log distribution coefficient (logD) in data set [3] of 3.4.
